Data on six compounds can be found in patent US10029994B2, “Isoxazole hydroxamic acid compounds as LpxC inhibitors” (priority 2014, dated 2018).

The target in one assay is T1, P. aeruginosa LpxC (Pseudomonas aeruginosa, UniProt P47205).
T1 construct: made in house
T1 sequence (P47205 1-303): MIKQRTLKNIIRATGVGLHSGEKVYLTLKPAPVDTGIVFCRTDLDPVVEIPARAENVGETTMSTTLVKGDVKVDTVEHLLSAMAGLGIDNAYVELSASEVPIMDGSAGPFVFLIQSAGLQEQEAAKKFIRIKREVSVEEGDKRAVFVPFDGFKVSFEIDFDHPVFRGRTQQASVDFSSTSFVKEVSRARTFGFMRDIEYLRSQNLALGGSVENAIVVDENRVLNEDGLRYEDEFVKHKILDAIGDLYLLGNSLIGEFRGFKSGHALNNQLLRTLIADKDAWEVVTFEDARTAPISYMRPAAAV
The assay is described as follows: P. aeruginosa LpxC Inhibition Assay (LC-MS/MS). It is filed as biochemical. The settings on record: 1 nM P. aeruginosa LpxC, 30 min pre-incubation, 2 μM UDP-3-O-(R-3-hydroxydecanoyl)-GlcNAc, pH 7.5. The text has this: P. aeruginosa LpxC Inhibition Assay
The P. aeruginosa LpxC protein is produced according to the general method of Hyland et al (Journal of Bacteriology 1997 179, 2029-2037: Cloning, expression and purification of UDP-3-O-acyl-GlcNAc deacetylase from Pseudomonas aeruginosa: a metalloamidase of the lipid A biosynthesis pathway). The LC-MS/MS method for quantitation of LpxC product was developed using an Agilent 1200 Capillary HPLC system coupled to an Applied Biosystems MDS Sciex 4000QTRAP mass spectrometer. Both instruments are controlled using the Applied Biosystems MDS Sciex Analyst software. LpxC reaction product (UDP-3-O—(R-3-hydroxyacyl)-glucosamine) was produced by hydrolysis of LpxC substrate catalyzed by P.a. LpxC and purified using reversed phase chromatography on a Phenomenex Luna C18(2) 4.6×50 mm column. An LpxC product calibration curve was generated to evaluate the sensitivity and dynamic range of the LC-MS/MS method. Briefly, compounds are pre-incubated with 1 nM P. aeruginosa LpxC for 30 min. at room temperature. Reactions are initiated by the addition of 2 μM UDP-3-O—(R-3-hydroxydecanoyl)-GlcNAc. Reactions are conducted in a 384-well plate with a total volume of 50 μL in each well containing 50 mM Sodium phosphate pH 7.5, 0.005% Trition X-100 for 20 min at room temperature. After quenching with 1.8% HOAc (5 μL of a 20% HOAc added to each well), reaction mixtures are analyzed using the LC-MS/MS method and peak areas are transformed into product concentration using a LpxC product calibration curve. Total activity (0% inhibition control) is obtained from reactions with no inhibitors and 100% inhibition control is the background using quenched samples before reaction starts. For IC50 determinations, peak areas are converted to percent inhibition in Microsoft Excel. Percent inhibition values are plotted vs. log compound concentration using XLfit. Data is fit to the four-parameter logistic equation using the non-linear regression algorithm in XLfit to return the IC50 and hill slope values.

The next assay deals with P. A. PAO1 NB52019. The assay is described as follows: MIC, broth microdilution (CLSI). The settings on record: Pseudomonas aeruginosa, PAO1; broth microdilution, 35° C., 20 hours; read-out: P. A. PAO1 NB52019 MIC. In kind it is cell-based, Pseudomonas aeruginosa. The protocol:
(§1) Bacterial isolates were cultivated from −70° C. frozen stocks by two consecutive overnight passages at 35° C. in ambient air on 5% blood agar (Remel, Lenexa, Kans.). Quality control strain, P. aeruginosa ATCC 27853, A. baumannii ATCC19606 and E. coli ATCC 25922 are from the American Type Culture Collection (ATCC; Rockville, Md.) and PAO1 was received from Dr. K. Poole.
(§2) Minimal Inhibitory Concentrations (MICs) were determined by the broth microdilution method in accordance with Clinical and Laboratories Institute (CLSI) guidelines (CLSI M100-S25, Performance Standards for Antimicrobial Susceptibility Testing; Twenty-fifth Informational Supplement). In brief, fresh bacterial overnight cultures were resuspended in sterile saline, adjusted to a 0.5 McFarland turbidity standard and then diluted 2000-fold in cation adjusted Mueller-Hinton Broth II (MHB; Remel BBL) to yield a final inoculum of approximately 5×10^5 colony-forming units (CFU)/mL. Two-fold serial dilutions of compounds were prepared in 100% dimethyl sulfoxide (DMSO) at 100-fold the highest final assay concentration; the resulting dilution series of compounds were diluted 1:10 with sterile water. Ten μl of the drug dilution series in 10% DMSO was transferred to microtiter wells and 90 μl of bacterial suspension was inoculated into the wells. For testing the ability of compounds to potentiate the activity of known antibiotics, the assay was modified as follows; known antibiotics were added to the bacterial inoculum at 1.1-fold the final assay concentration indicated in Table A. All inoculated microdilution trays were incubated in ambient air at 35° C. for 20 hours. Following incubation, assay plates were read in a microtiter plate reader at 600 nm and visually inspected to confirm the MIC endpoint well with the OD value. The lowest concentration of the compound that prevented visible growth was recorded as the MIC. Performance of the assay was monitored by testing ciprofloxacin against the laboratory quality control strain in accordance with guidelines of the CLSI.

The subject of a further assay is E. C. ATCC 25922. Nature of the assay: MIC, broth microdilution (CLSI). The note with it: Escherichia coli, ATCC25922, 20 h, broth microdilution, 35° C., 20 hours; read-out: E. C. ATCC 25922 MIC. In kind it is cell-based, Escherichia coli. The protocol:
as §1, §2

In the next assay the test system is E. C. ATCC 29522. Nature of the assay: MIC in the presence of sub-inhibitory rifampicin (potentiation/synergy). In kind it is cell-based, Escherichia coli. The settings on record: +2 μg/ml rifampicin (RIF); broth microdilution, 35° C., 20 hours. The protocol:
as §1, §2

For assay [1], the system named is A. B. ATCC 19606. The assay is described as follows: MIC, broth microdilution (CLSI). It is filed as cell-based, Acinetobacter baumannii. The settings on record: Acinetobacter baumannii, ATCC19606; broth microdilution, 35° C., 20 hours; read-out: A. B. ATCC 19606 MIC. The procedure:
as §1, §2

Assay [2] has as its system A. B. ATCC 19606. The assay is described as follows: MIC in the presence of sub-inhibitory rifampicin (potentiation/synergy). In kind it is cell-based, Acinetobacter baumannii. The settings on record: +2 μg/ml rifampicin (RIF); broth microdilution, 35° C., 20 hours. The protocol: as §1, §2

`Cc1cc([C@H](O)[C@](C)(NCc2cc(C#CC3CCC3)on2)C(=O)NO)no1` [Compound 3.2, (2S,3R)-2-(((5-(cyclobutylethynyl)isoxazol-3-yl)methyl)amino)-N,3-dihydroxy-2-methyl-3-(5-methylisoxazol-3-yl)propanamide] returned an IC50 at P. aeruginosa LpxC of less than 1 nM. Besides, the results for the minimal inhibitory concentration (MIC) in the assay on P. A. PAO1 NB52019, in the assay with E. C. ATCC 25922 and in the assay with A. B. ATCC 19606 [1] were 1 µg/mL, 1 µg/mL and more than 64 µg/mL, respectively. In addition, the “E. C. ATCC 29522 (+2 μg/ml RIF) MIC” value in the assay on E. C. ATCC 29522 is 0.5 µg/mL. In addition, in the assay on A. B. ATCC 19606 [2], the “A. B. ATCC 19606 (+2 μg/ml RIF) MIC” value is not above 0.06 µg/mL.
For `Cc1cc([C@H](O)[C@](C)(NCc2cc(C#Cc3ccccc3)on2)C(=O)NO)no1` [Compound 3.3, (2S,3R)—N,3-dihydroxy-2-methyl-3-(5-methylisoxazol-3-yl)-2-(((5-(phenylethynyl)isoxazol-3-yl)methyl)amino)propanamide], on P. aeruginosa LpxC, the IC50 was less than 1 nM. Besides, the MIC was 0.25 µg/mL with P. A. PAO1 NB52019, not above 0.06 µg/mL in the assay with E. C. ATCC 25922 and 64 µg/mL in the assay on A. B. ATCC 19606 [1]. Also, the “E. C. ATCC 29522 (+2 μg/ml RIF) MIC” value in the assay with E. C. ATCC 29522 amounted to 0.06 µg/mL. In the assay with A. B. ATCC 19606 [2], the “A. B. ATCC 19606 (+2 μg/ml RIF) MIC” value is not above 0.06 µg/mL.
`CC(NCc1cc(C#Cc2ccccc2)on1)(C(=O)NO)C(O)c1cc(CO)on1` (stereo not drawn) [Compound 3.4, N,3-dihydroxy-3-(5-(hydroxymethyl)isoxazol-3-yl)-2-methyl-2-(((5-(phenylethynyl)isoxazol-3-yl)methyl)amino)propanamide] registered an IC50 against P. aeruginosa LpxC of less than 1 nM. Further, the MIC is 0.5 µg/mL in the assay with P. A. PAO1 NB52019, 1 µg/mL in the assay with E. C. ATCC 25922 and more than 64 µg/mL in the assay on A. B. ATCC 19606 [1]. The “E. C. ATCC 29522 (+2 μg/ml RIF) MIC” value in the assay with E. C. ATCC 29522 is not above 0.06 µg/mL. For the same compound, in the assay with A. B. ATCC 19606 [2], the “A. B. ATCC 19606 (+2 μg/ml RIF) MIC” value was found to be 0.125 µg/mL.
Compound `COCCCCC#Cc1cc(CN[C@](C)(C(=O)NO)[C@@H](O)c2cc(C)on2)no1` [Compound 3.5, (2S,3R)—N,3-dihydroxy-2-(((5-(6-methoxyhex-1-yn-1-yl)isoxazol-3-yl)methyl)amino)-2-methyl-3-(5-methylisoxazol-3-yl)propanamide] yielded an IC50 against P. aeruginosa LpxC of 3 nM. The MIC in the assay with P. A. PAO1 NB52019 was determined as 16 µg/mL; in the assay with E. C. ATCC 25922, 16 µg/mL; in the assay with A. B. ATCC 19606 [1], 32 µg/mL. Besides, the “E. C. ATCC 29522 (+2 μg/ml RIF) MIC” value with E. C. ATCC 29522 was determined as 2 µg/mL. Further, the “A. B. ATCC 19606 (+2 μg/ml RIF) MIC” value with A. B. ATCC 19606 [2] was 1 µg/mL.
In the case of `CC(NCc1cc(C#CC2CC2)on1)(C(=O)NO)C(O)c1cc(C2CC2)on1` (stereo not drawn) [Compound 3.6, 2-(((5-(cyclopropylethynyl)isoxazol-3-yl)methyl)amino)-3-(5-cyclopropylisoxazol-3-yl)-N, 3-dihydroxy-2-methylpropanamide], the midpoint of inhibition at P. aeruginosa LpxC, the IC50, lay at 2 nM. Besides, the figures for the MIC in the assay on P. A. PAO1 NB52019, with E. C. ATCC 25922 and in the assay on A. B. ATCC 19606 [1] were 4 µg/mL, 2 µg/mL and 64 µg/mL, respectively. The “E. C. ATCC 29522 (+2 μg/ml RIF) MIC” value in the assay on E. C. ATCC 29522 turned out to be 0.5 µg/mL. Besides, the “A. B. ATCC 19606 (+2 μg/ml RIF) MIC” value with A. B. ATCC 19606 [2] was found to be 0.125 µg/mL.
Consider `CC/C=C/c1cc(CC[C@](C)(C(=O)NO)S(C)(=O)=O)no1` [Compound 4.1, (R,E)-4-(5-(but-1-en-1-yl)isoxazol-3-yl)-N-hydroxy-2-methyl-2-(methylsulfonyl)butanamide], for which the IC50 at P. aeruginosa LpxC is less than 1 nM. Further, the MIC is 0.5 µg/mL in the assay on P. A. PAO1 NB52019, 8 µg/mL in the assay with E. C. ATCC 25922 and more than 64 µg/mL in the assay on A. B. ATCC 19606 [1]. For the same compound, the “E. C. ATCC 29522 (+2 μg/ml RIF) MIC” value with E. C. ATCC 29522 is 0.125 µg/mL. Besides, the “A. B. ATCC 19606 (+2 μg/ml RIF) MIC” value in the assay with A. B. ATCC 19606 [2] is 1 µg/mL.
